The values below come from paper PMC6154745 (Oncotarget, 2018).

One assay relates to heart miRNAs. The assay can be described thus: miRNA expression (microarray), Study 3, heart. The assay is classed as in vivo, ICR (CD-1) mice. As to the method: (§1) Each group was composed of 10 female mice.
(§2) The urine was collected for 8 h and pooled from the mice belonging to each experimental group in Study 3 by using metabolic cages during the day preceding euthanasia of mice. Immediately after sacrifice, a bronchoalveolar lavage (BAL) was performed and used for preparing BALF, and the blood was collected and used for preparing serum. BALF and blood serum were pooled within each experimental group. The organs reported in the general design of the studies were collected, as previously described. Immediately after collection, each organ or fluid was immersed in RNAlater and kept at -80°C for miRNA analysis. Portions of the organs used in Study 1 and Study 2 were stored at -80°C for evaluating DNA damage.
(§3) For evaluating the expression of pulmonary miRNAs we used the 7th generation miRCURY LNA™ microRNA Array (Exiqon), which contains 3,100 capture probes covering human, mouse and rat miRNAs. In particular, this array covers 1,135 mouse miRNAs, i.e. the 88.6% of the 1,281 mouse miRNAs listed in miRBase 19. Microarray analyses were carried out as previously described.
(§4) Treatment-related differences in body weights, in the frequency of MN NCE, and in the levels of pulmonary DNA adducts and 8-oxo-dGuo, all of them expressed as means ± SE within each group of mice, were evaluated for statistical significance by ANOVA followed by Student's t test for unpaired data. miRNA microarray data, after local background subtraction, log transformation, and normalization were analyzed by GeneSpring software (Agilent, Santa Clara, CA), and expression data were median centered by using the GeneSpring normalization option.

A further assay has as its system skeletal muscle miRNAs. The assay can be described thus: miRNA expression (microarray), Study 3, skeletal muscle. In kind it is in vivo, ICR (CD-1) mice. As to the method: as §1, §2, §3, §4

Turning to `Cc1ccc(-c2cc(C(F)(F)F)nn2-c2ccc(S(N)(=O)=O)cc2)cc1` [Celecoxib, 4-[5-(4-methylphenyl)-3-(trifluoromethyl)-1H-pyrazol-1-yl] benzene-1-sulfonamide], the “upregulated/downregulated miRNAs” value in the assay on heart miRNAs (MCS-exposed mice) is reported as 0/1. Also, in the assay with heart miRNAs (MCS-free mice), the “upregulated/downregulated miRNAs” value was 0/2. Further, the “number of miRNAs modulated by celecoxib” value in the assay with heart miRNAs (high dose) amounted to 3. In the assay on skeletal muscle miRNAs (MCS-exposed mice), this molecule came in with a miR-30e upregulation of 9 fold, a miR-125b downregulation of 11 fold, a miR-511 upregulation of 5 fold and a miR-695 downregulation of 6 fold. Moreover, in the assay on skeletal muscle miRNAs (MCS-exposed mice), the miR-1964-5p downregulation came to 5 fold and the “upregulated/downregulated miRNAs” value is 6/10. For the same molecule, the “upregulated/downregulated miRNAs” value in the assay with skeletal muscle miRNAs (MCS-free mice) was 0/0. For the same molecule, the “number of miRNAs modulated by celecoxib” value with skeletal muscle miRNAs (high dose) worked out at 16.
